Data reported in the supplement of paper PMC10307832.

Key:
Assay in all cases: relative viability (nuclei count vs DMSO), 5 days (fraction); higher = more cells survive
ChaGo-K-1 = test system: ChaGo-K-1
Outline: (§1)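 Lung cancer cell lines in 1536-well plates were dosed by pin tool the day after seeding, either with one drug alone or with a fixed anchor-drug dose plus five library-drug doses (not always all listed) in √10 steps. After 5 days, cells were fixed and their nuclei stained in one step (final 0.05% Triton X-100, 1% formaldehyde, 1 ug/ml Hoechst), then counted on 4× images. Relative viability is the nuclei count in treated wells divided by that in vehicle wells. Values are medians of duplicate plates.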

EMC-BAC-2 = test system: EMC-BAC-2
Outline: as §1

EPLC-272H = test system: EPLC-272H
Outline: as §1

H3255 = test system: H3255
Outline: as §1

HCC-44 = test system: HCC-44
Outline: as §1

HCC-827 = test system: HCC-827
Outline: as §1

LCLC-103H = test system: LCLC-103H
Outline: as §1

LCLC-97TM1 = test system: LCLC-97TM1
Outline: as §1

NCI-H1355 = test system: NCI-H1355
Outline: as §1

NCI-H1395 = test system: NCI-H1395
Outline: as §1

NCI-H1651 = test system: NCI-H1651
Outline: as §1

NCI-H1793 = test system: NCI-H1793
Outline: as §1

NCI-H1944 = test system: NCI-H1944
Outline: as §1

NCI-H1993 = test system: NCI-H1993
Outline: as §1

NCI-H2085 = test system: NCI-H2085
Outline: as §1

NCI-H2087 = test system: NCI-H2087
Outline: as §1

NCI-H23 = test system: NCI-H23
Outline: as §1

NCI-H2405 = test system: NCI-H2405
Outline: as §1

NCI-H322M = test system: NCI-H322M
Outline: as §1

NCI-H520 = test system: NCI-H520
Outline: as §1

NCI-H650 = test system: NCI-H650
Outline: as §1

SK-MES-1 = test system: SK-MES-1
Outline: as §1

UMC-11 = test system: UMC-11
Outline: as §1

Clc1ccc(Nc2nnc(Cc3ccncc3)c3ccccc23)cc1 [Vatalanib] + O=C(c1cc(Cc2n[nH]c(=O)c3ccccc23)ccc1F)N1CCN(C(=O)C2CC2)CC1 [Olaparib] (partner 8 µM)
relative viability (ChaGo-K-1; first compound 0.04 µM): 0.412 | relative viability (ChaGo-K-1; first compound 0.1265 µM): 0.457 | relative viability (ChaGo-K-1; first compound 0.4 µM): 0.466 | relative viability (ChaGo-K-1; first compound 1.265 µM): 0.42 | relative viability (ChaGo-K-1; first compound 4 µM): 0.433 | relative viability (EMC-BAC-2; first compound 0.04 µM): 0.476 | relative viability (EMC-BAC-2; first compound 0.1265 µM): 0.476 | relative viability (EMC-BAC-2; first compound 0.4 µM): 0.497 | relative viability (EMC-BAC-2; first compound 4 µM): 0.492 | relative viability (EPLC-272H; first compound 0.04 µM): 0.944 | relative viability (EPLC-272H; first compound 0.1265 µM): 0.79 | relative viability (EPLC-272H; first compound 0.4 µM): 1.04 | relative viability (EPLC-272H; first compound 1.265 µM): 0.688 | relative viability (EPLC-272H; first compound 4 µM): 0.86 | relative viability (H3255; first compound 0.04 µM): 0.555 | relative viability (H3255; first compound 0.1265 µM): 0.579 | relative viability (H3255; first compound 0.4 µM): 0.596 | relative viability (H3255; first compound 1.265 µM): 0.576 | relative viability (H3255; first compound 4 µM): 0.543 | relative viability (HCC-44; first compound 0.04 µM): 1.05 | relative viability (HCC-44; first compound 0.1265 µM): 0.971 | relative viability (HCC-44; first compound 0.4 µM): 0.978 | relative viability (HCC-44; first compound 1.265 µM): 0.998 | relative viability (HCC-44; first compound 4 µM): 0.996 | relative viability (HCC-827; first compound 0.04 µM): 0.56 | relative viability (HCC-827; first compound 0.1265 µM): 0.655 | relative viability (HCC-827; first compound 1.265 µM): 0.534 | relative viability (HCC-827; first compound 4 µM): 0.638 | relative viability (LCLC-103H; first compound 0.04 µM): 0.746 | relative viability (LCLC-103H; first compound 0.1265 µM): 0.706 | relative viability (LCLC-103H; first compound 0.4 µM): 0.749 | relative viability (LCLC-103H; first compound 1.265 µM): 0.746 | relative viability (LCLC-103H; first compound 4 µM): 0.764 | relative viability (LCLC-97TM1; first compound 0.04 µM): 0.357 | relative viability (LCLC-97TM1; first compound 0.1265 µM): 0.375 | relative viability (LCLC-97TM1; first compound 0.4 µM): 0.338 | relative viability (LCLC-97TM1; first compound 1.265 µM): 0.39 | relative viability (LCLC-97TM1; first compound 4 µM): 0.345 | relative viability (NCI-H1355; first compound 0.04 µM): 0.732 | relative viability (NCI-H1355; first compound 0.1265 µM): 0.79 | relative viability (NCI-H1355; first compound 0.4 µM): 0.809 | relative viability (NCI-H1355; first compound 1.265 µM): 0.699 | relative viability (NCI-H1355; first compound 4 µM): 0.706 | relative viability (NCI-H1395; first compound 0.04 µM): 0.448 | relative viability (NCI-H1395; first compound 0.1265 µM): 0.456 | relative viability (NCI-H1395; first compound 0.4 µM): 0.489 | relative viability (NCI-H1395; first compound 4 µM): 0.437 | relative viability (NCI-H1651; first compound 0.04 µM): 0.19 | relative viability (NCI-H1651; first compound 0.1265 µM): 0.184 | relative viability (NCI-H1651; first compound 0.4 µM): 0.195 | relative viability (NCI-H1651; first compound 1.265 µM): 0.202 | relative viability (NCI-H1651; first compound 4 µM): 0.179 | relative viability (NCI-H1793; first compound 0.04 µM): 0.871 | relative viability (NCI-H1793; first compound 0.1265 µM): 0.713 | relative viability (NCI-H1793; first compound 0.4 µM): 1.02 | relative viability (NCI-H1793; first compound 1.265 µM): 0.788 | relative viability (NCI-H1793; first compound 4 µM): 0.78 | relative viability (NCI-H1944; first compound 0.04 µM): 0.408 | relative viability (NCI-H1944; first compound 0.1265 µM): 0.403 | relative viability (NCI-H1944; first compound 0.4 µM): 0.417 | relative viability (NCI-H1944; first compound 1.265 µM): 0.392 | relative viability (NCI-H1944; first compound 4 µM): 0.384 | relative viability (NCI-H1993; first compound 0.04 µM): 0.587 | relative viability (NCI-H1993; first compound 0.1265 µM): 1.08 | relative viability (NCI-H1993; first compound 0.4 µM): 0.879 | relative viability (NCI-H1993; first compound 1.265 µM): 1.11 | relative viability (NCI-H1993; first compound 4 µM): 1.01 | relative viability (NCI-H2085; first compound 0.04 µM): 0.839 | relative viability (NCI-H2085; first compound 0.1265 µM): 0.81 | relative viability (NCI-H2085; first compound 0.4 µM): 0.812 | relative viability (NCI-H2085; first compound 1.265 µM): 0.795 | relative viability (NCI-H2085; first compound 4 µM): 0.727 | relative viability (NCI-H2087; first compound 0.04 µM): 0.461 | relative viability (NCI-H2087; first compound 0.1265 µM): 0.542 | relative viability (NCI-H2087; first compound 0.4 µM): 0.682 | relative viability (NCI-H2087; first compound 1.265 µM): 0.519 | relative viability (NCI-H2087; first compound 4 µM): 0.633 | relative viability (NCI-H23; first compound 0.04 µM): 0.306 | relative viability (NCI-H23; first compound 0.1265 µM): 0.161 | relative viability (NCI-H23; first compound 0.4 µM): 0.326 | relative viability (NCI-H23; first compound 1.265 µM): 0.305 | relative viability (NCI-H23; first compound 4 µM): 0.28 | relative viability (NCI-H2405; first compound 0.04 µM): 0.808 | relative viability (NCI-H2405; first compound 0.1265 µM): 0.807 | relative viability (NCI-H2405; first compound 0.4 µM): 0.957 | relative viability (NCI-H2405; first compound 4 µM): 0.87 | relative viability (NCI-H322M; first compound 0.04 µM): 0.452 | relative viability (NCI-H322M; first compound 0.1265 µM): 0.662 | relative viability (NCI-H322M; first compound 0.4 µM): 0.781 | relative viability (NCI-H322M; first compound 4 µM): 0.778 | relative viability (NCI-H520; first compound 0.04 µM): 0.392 | relative viability (NCI-H520; first compound 0.1265 µM): 0.361 | relative viability (NCI-H520; first compound 0.4 µM): 0.37 | relative viability (NCI-H520; first compound 1.265 µM): 0.283 | relative viability (NCI-H520; first compound 4 µM): 0.34 | relative viability (NCI-H650; first compound 0.04 µM): 0.377 | relative viability (NCI-H650; first compound 0.1265 µM): 0.378 | relative viability (NCI-H650; first compound 0.4 µM): 0.414 | relative viability (NCI-H650; first compound 1.265 µM): 0.394 | relative viability (NCI-H650; first compound 4 µM): 0.361 | relative viability (SK-MES-1; first compound 0.04 µM): 0.608 | relative viability (SK-MES-1; first compound 0.1265 µM): 0.71 | relative viability (SK-MES-1; first compound 0.4 µM): 0.821 | relative viability (SK-MES-1; first compound 1.265 µM): 0.61 | relative viability (SK-MES-1; first compound 4 µM): 0.627 | relative viability (UMC-11; first compound 0.04 µM): 0.331 | relative viability (UMC-11; first compound 0.1265 µM): 0.39 | relative viability (UMC-11; first compound 0.4 µM): 0.318 | relative viability (UMC-11; first compound 1.265 µM): 0.468 | relative viability (UMC-11; first compound 4 µM): 0.297
